Test results taken from patent US20230027985A1, “SUBSTITUTED HYDANTOINAMIDES AS ADAMTS7 ANTAGONISTS” (Bayer Aktiengesellschaft, priority 2019, published 2023).

How the values were obtained:
[1] = target: T1, Purified recombinant ADAMTS-7 (rat prodomain/human catalytic domain, SEQ ID No. 01 or 02) (Homo sapiens, UniProt Q9UKP4); experiment: Assay for ADAMTS-7 enzymatic activity (FRET substrate cleavage); type: biochemical; details: FRET substrate SEQ ID No. 11, 120 min at 32° C.; read-out: ADAMTS7-IC50
T1 construct: rat ADAMTS-7 signal peptide + prodomain (rat 1-217, Q1EHB3) (N); 2xStrep tag (C); 6xHis tag (C); made in house; host or cells: Expi293 cells
T1 sequence (Q9UKP4 237-537): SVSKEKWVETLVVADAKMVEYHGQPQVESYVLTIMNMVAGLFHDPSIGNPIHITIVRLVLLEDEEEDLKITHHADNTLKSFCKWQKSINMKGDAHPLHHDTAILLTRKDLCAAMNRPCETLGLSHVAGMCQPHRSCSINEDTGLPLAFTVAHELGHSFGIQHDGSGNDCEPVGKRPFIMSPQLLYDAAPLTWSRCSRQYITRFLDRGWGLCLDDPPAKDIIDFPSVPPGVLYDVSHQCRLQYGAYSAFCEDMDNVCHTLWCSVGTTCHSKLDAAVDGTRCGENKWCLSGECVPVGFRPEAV
In short: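 IC50 values were fitted from percent inhibition across test-compound concentrations. Fluorescence gain (ex 485, em 520 nm) reports cleavage of a thrombospondin-1 (275-289) FRET peptide with QXL520 quencher, after 120 min at 32 °C. The enzyme, about 20 nM, was in HEPES pH 8.0 buffer with NaCl, CaCl2, ZnCl2 and Brij.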

ADAMTS4 = target: T2, ADAMTS4 (Homo sapiens, UniProt O75173); experiment: Selectivity assay for ADAMTS-7 modulators (FRET), ADAMTS4; type: biochemical; details: 50 nM enzyme (R&D 4307-AD), 1 μM Dabcyl/Edans FRET substrate, 120 min at 32° C.
T2 construct: purchased R&D 4307-AD
T2 sequence (O75173 213-685 limits assumed): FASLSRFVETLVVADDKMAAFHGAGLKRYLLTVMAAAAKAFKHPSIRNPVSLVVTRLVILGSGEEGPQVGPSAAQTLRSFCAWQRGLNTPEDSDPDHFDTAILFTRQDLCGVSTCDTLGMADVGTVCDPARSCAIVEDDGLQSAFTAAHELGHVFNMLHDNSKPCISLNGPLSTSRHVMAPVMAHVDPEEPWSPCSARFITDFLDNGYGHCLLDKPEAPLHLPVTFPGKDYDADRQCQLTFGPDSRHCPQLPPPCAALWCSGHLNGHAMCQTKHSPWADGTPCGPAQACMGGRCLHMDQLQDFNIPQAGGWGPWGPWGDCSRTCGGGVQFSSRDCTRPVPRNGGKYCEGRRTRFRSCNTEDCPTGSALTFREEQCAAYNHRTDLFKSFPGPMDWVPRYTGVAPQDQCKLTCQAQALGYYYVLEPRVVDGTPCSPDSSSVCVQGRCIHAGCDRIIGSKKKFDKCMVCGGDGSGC
In short: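 Enzyme in 50 mM Tris pH 7.5, 150 mM NaCl, 10 mM CaCl2, 0.05% Brij, preincubated with compound in DMSO; reaction started with FRET substrate. Fluorescence increase read after 120 min at 32° C; IC50 from percent inhibition versus compound concentration.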

| Compound | IC50 [1] | IC50 (ADAMTS4) |
| --- | --- | --- |
| O=C1NC(=O)C(CNC(=O)c2cnn(-c3ccc(F)cc3)n2)(c2cscn2)N1 (stereo not drawn) [Example 148, ent-N-{[2,5-dioxo-4-(1,3-thiazol-4-yl)imidazolidin-4-yl]methyl}-2-(4-fluorophenyl)-2H-1,2,3-triazole-4-carboxamide] | 0.012 µM | 2.5 µM |
| ent-N-({4-[1-(difluoromethyl)-1H-pyrazol-5-yl]-2,5-dioxoimidazolidin-4-yl}methyl)-2-(4-fluorophenyl)-2H-1,2,3-triazole-4-carboxamide [Example 129] | 0.018 µM | 1.7 µM |

Second part, the compound after the results:

| IC50 [1] | IC50 (ADAMTS4) | Compound |
| --- | --- | --- |
| 0.003 µM | 0.108 µM | Cn1ccnc1C1(CNC(=O)c2cnn(-c3cc(F)c(F)c(F)c3)n2)NC(=O)NC1=O (stereo not drawn) [Example 146, ent-N-{[4-(1-methyl-1H-imidazol-2-yl)-2,5-dioxoimidazolidin-4-yl]methyl}-2-(3,4,5-trifluorophenyl)-2H-1,2,3-triazole-4-carboxamide] |
| 0.32 µM | 17 µM | O=C1NC(=O)[C@](CNC(=O)c2cnn(-c3ccc(F)cc3Cl)n2)(C2CC2)N1 [Example 151, 2-(2-chloro-4-fluorophenyl)-N-{[(4R)-4-cyclopropyl-2,5-dioxoimidazolidin-4-yl]methyl}-2H-1,2,3-triazole-4-carboxamide] |
| 0.06 µM | 1 µM | O=C1NC(=O)[C@](CNC(=O)c2cnn(-c3ccc(Cl)cc3F)n2)(C2CC2)N1 [Example 160, 2-(4-chloro-2-fluorophenyl)-N-{[(4R)-4-cyclopropyl-2,5-dioxoimidazolidin-4-yl]methyl}-2H-1,2,3-triazole-4-carboxamide] |
| 0.13 µM | 7.1 µM | O=C1NC(=O)[C@](CNC(=O)c2cnn(-c3ccc(Cl)cc3Cl)n2)(C2CC2)N1 [Example 161, N-{[(4R)-4-cyclopropyl-2,5-dioxoimidazolidin-4-yl]methyl}-2-(2,4-dichlorophenyl)-2H-1,2,3-triazole-4-carboxamide] |
